Experimental data: publication PMC5588548, “Suramin Inhibits Osteoarthritic Cartilage Degradation by Increasing Extracellular Levels of Chondroprotective Tissue Inhibitor of Metalloproteinases 3” (Molecular Pharmacology, 2017)
In brackets after ≈: the same amount, converted by molar mass.

Tests used:
[1] = tested on: primary chondrocytes isolated from normal porcine cartilage; experiment: Accumulation of endogenous TIMP-3 in medium of porcine chondrocytes; type: cell-based; conditions: suramin 0–250 µg/ml, 48 hours
Experimental: Cells (HTB94 chondrosarcoma cells, primary porcine chondrocytes, or human osteoarthritic chondrocytes) were plated overnight (6 × 10^5 cells per well of a 12-well plate) in DMEM containing 10% FCS and washed three times in serum-free DMEM. […] Media were harvested, precipitated with trichloroacetic acid, and analyzed by immunoblotting using a rabbit anti–TIMP-3 polyclonal antibody (AB6000; Millipore, Hertfordshire, UK) and an alkaline phosphatase–conjugated anti-rabbit secondary antibody (Promega). TIMP-3 in the medium (mean ± S.D., n = 3) was calculated relative to the pixel volume of untreated cells (defined as 1).

[2] = biological target: T1, TIMP-3 binding to LRP1 (Homo sapiens, UniProt P35625); experiment: TIMP-3 binding to immobilized LRP1 (ELISA); conditions: TIMP-3 preincubated with suramin 200 µg/ml, 1 hour, 37°C
T1 construct: purchased BioMac, Leipzig, Germany
T1 sequence (P35625 24-211): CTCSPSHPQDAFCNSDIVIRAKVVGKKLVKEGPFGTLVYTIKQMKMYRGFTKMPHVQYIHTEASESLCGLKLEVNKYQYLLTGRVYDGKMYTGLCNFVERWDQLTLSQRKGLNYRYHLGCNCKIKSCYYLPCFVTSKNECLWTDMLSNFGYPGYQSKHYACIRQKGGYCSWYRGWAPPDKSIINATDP
Experimental: LRP1 (5 nM; BioMac, Leipzig, Germany) was coated (overnight, 4°C) onto medium-binding ELISA plates (Greiner Bio-One, Stonehouse, UK) in 20 mM HEPES, 150 mM NaCl, 5 mM CaCl2, and 0.05% Tween 20, pH 7.4. Wells were blocked with 10% bovine serum albumin (BSA) in Tris HCl, NaCl, and CaCl2 (TNC) buffer (50 mM Tris HCl, pH 7.5, 150 mM NaCl, 10 mM CaCl2, and 0.05% Brij 35). Wells were washed in TNC buffer containing 0.1% Tween 20 after this and every subsequent step. FLAG-tagged human TIMP-3 (0.4–50 nM), either alone or preincubated with suramin (200 μg/ml, 1 hour, 37°C), was applied to wells in TNC buffer containing 5% BSA (3 hours, 25°C). Binding was detected with anti-FLAG M2 primary antibody and anti-mouse horseradish peroxidase–conjugated secondary antibody in the same buffer. 3,3′,5,5′-Tetramethylbenzidine (Becton Dickinson) substrate was added, the reaction was stopped when appropriate by adding 2 N H2SO4, and absorbance at 450 nm was measured using a FLUOstar Omega microplate reader. Data (mean ± S.D., n = 3) were analyzed using Prism 7.0b software.

[3] = tested on: porcine cartilage explants; experiment: Aggrecan release from porcine cartilage explants (DMMB assay, neo-epitope immunoblotting); type: cell-based
Experimental: The effects of suramin on cartilage degradation were assessed using porcine or human cartilage explants. Explants were rested for 48 hours after dissection and were washed with serum-free DMEM. […]
(§1) Aggrecan degradation was analyzed by quantifying aggrecan fragments released into the conditioned media using the dimethylmethylene blue (DMMB) dye-binding assay ([Farndale et al., 1986]) (mean ± S.D., n = 3) and by immunoblotting with neo-epitope antibodies that recognize ADAMTS-cleaved but not intact aggrecan. For immunoblotting, conditioned media were deglycosylated by adding an equal volume of 200 mM sodium acetate and 50 mM Tris/HCl, pH 6.8, containing chondroitinase and β-endoglycosidase (0.05 U each; 18 hours, 37°C; Sigma-Aldrich). Aggrecan fragments were precipitated by adding five volumes of ice-cold acetone (18 hours, −20°C). After centrifugation (13,000 rpm, 10 minutes, 4°C), pellets were resuspended in SDS sample buffer, separated by electrophoresis on a 6% (v/v) polyacrylamide gel, and blotted onto polyvinylidene fluoride. Membranes were blocked with 5% (m/v) BSA in Tris-buffered saline and incubated with either a rabbit antibody that recognizes the AGEG neo-epitope generated by ADAMTS cleavage of the TAQE^1771∼^1772AGEG bond of aggrecan ([Troeberg et al., 2008]) or a mouse antibody that recognizes the ARGSV neo-epitope generated by ADAMTS cleavage of the NITEGE^373∼^374ARGSV bond ([Hughes et al., 1995]).

[4] = tested on: TIMP-3 mRNA; experiment: TIMP-3 mRNA analysis in HTB94 cells (quantitative PCR); type: cell-based; conditions: suramin 0–250 µg/ml, 18 hours
Experimental: (§2) HTB94 chondrosarcoma cells or primary human chondrocytes (1 × 10^6 cells) were treated in triplicate with 0–250 µg/ml suramin in serum-free DMEM for 18–48 hours. Total RNA was isolated from cells using an RNeasy mini kit (Qiagen, Crawley, UK) and cDNA was synthesized (reverse transcriptase kit; Applied Biosystems, Foster City, CA). Levels of TIMP-1, TIMP-2, TIMP-3, LRP1, and RPLP0 internal reference mRNA were quantified by real-time polymerase […] chain reaction on a Corbett Rotor-Gene 6000 (Corbett Life Science, Mortlake, NSW, Australia) using TaqMan Fast Universal PCR Master Mix (Applied Biosystems) and TaqMan probes (Applied Biosystems) Hs01092512_g1 for TIMP-1, Hs00234278_m1 for TIMP-2, Hs00165949_m1 for TIMP-3, Hs00233856_m1 for LRP1, and Hs99999902_m1 for RPLP0. The ΔΔ threshold cycle values (mean ± S.D., n = 3 technical replicates) are shown relative to control untreated HTB94 cells (defined as 1).

[5] = tested on: LRP1 ectodomain; experiment: Shedding of LRP1 ectodomain into medium of HTB94 cells (immunoblot); type: cell-based; conditions: suramin 50–250 µg/ml, 30 hours
[6] = tested on: LRP1 mRNA; experiment: LRP1 mRNA analysis in HTB94 cells (quantitative PCR); type: cell-based; conditions: 18 hours
Experimental: as §2

[7] = tested on: human OA cartilage explants; experiment: Aggrecan release from human OA cartilage explants (DMMB assay); type: cell-based; conditions: 48 hours
Experimental: The effects of suramin on cartilage degradation were assessed using porcine or human cartilage explants. Explants were rested for 48 hours after dissection and were washed with serum-free DMEM. Explants were then treated with retinoic acid (1 µM; Sigma-Aldrich), interleukin (IL)-1 (10 ng/ml; Peprotech, London, UK), and/or suramin (0–250 µg/ml) in serum-free DMEM for 48 hours.
as §1, with “Membranes were blocked with 5% (m/v) BSA in Tris-buffered saline and incubated with either a rabbit antibody that recognizes the AGEG neo-epitope generated by ADAMTS cleavage of the TAQE^1771∼^1772AGEG bond of aggrecan ([Troeberg et al., 2008]) or a mouse antibody that recognizes the ARGSV neo-epitope generated by ADAMTS cleavage of the NITEGE^373∼^374ARGSV bond ([Hughes et al., 1995]).” left out

Question: For `Cc1ccc(C(=O)Nc2ccc(S(=O)(=O)O)c3cc(S(=O)(=O)O)cc(S(=O)(=O)O)c23)cc1NC(=O)c1cccc(NC(=O)Nc2cccc(C(=O)Nc3cc(C(=O)Nc4ccc(S(=O)(=O)O)c5cc(S(=O)(=O)O)cc(S(=O)(=O)O)c45)ccc3C)c2)c1` [suramin], which “endocytosis of endogenously expressed TIMP-3” value [1] is on record?
Answer: inhibited endocytosis

Question: What about the “TIMP-3 binding to immobilized LRP1” value [2] of the same compound?
Answer: abolished

Question: And the IC50 ([3]; Sus scrofa, 48 h, porcine cartilage explants, retinoic acid 1 µM, 48 hours, DMMB assay, read-out: IC50 for inhibition of aggrecan release)?
Answer: 98 ± 9 µg/mL (≈ 75.5 µM)

Question: What about the aggrecan release ([3]; porcine cartilage explants stimulated with IL-1 10 ng/ml or retinoic acid 1 µM, 48 hours, DMMB assay) of the same compound?
Answer: effectively inhibited

Question: And the “aggrecan degradation at ADAMTS-susceptible NITEGE373∼374ARGSV and TAQE1771∼1772AGEG sites (neo-epitope immunoblotting)” value ([3]; porcine cartilage explants, retinoic acid 1 µM, 48 hours)?
Answer: inhibited

Question: What about the aggrecan degradation ([3]; porcine cartilage, retinoic acid 1 µM, 30 hours, with anti–TIMP-3 antibody MAB973 50 µg/ml) of the same compound?
Answer: unable to inhibit

Question: What about the aggrecan release ([3]; porcine cartilage, retinoic acid 1 µM, 30 hours, with isotype control antibody 50 µg/ml) of the same compound?
Answer: significantly inhibited

Question: And the “TIMP-3 mRNA levels” value [4]?
Answer: not associated with any significant change

Question: What about the “shedding of LRP1 ectodomain into the medium” value [5] of the same compound?
Answer: not affected

Question: And the “increase in expression of LRP1 mRNA” value ([6]; suramin 250 µg/ml)?
Answer: 3 fold

Question: And the “expression of LRP1 mRNA” value ([6]; suramin up to 200 µg/ml)?
Answer: unaffected

Question: What about the aggrecan degradation ([7]; human OA cartilage explants stimulated with IL-1 10 ng/ml or retinoic acid 1 µM) of the same compound?
Answer: dose-dependently inhibited

Question: And the IC50 ([7]; human OA cartilage explants, retinoic acid 1 µM, read-out: IC50 for inhibition of aggrecan degradation)?
Answer: 62 ± 16 µg/mL (≈ 47.8 µM)
